Test results from PubChem BioAssay (NCI).
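Test compounds were applied to cells in 96-well plates for 48 hours at 5 doses. The concentration for full growth arrest is given as TGI.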

Tests used:
[1] = tested on: P388/ADR leukemia; experiment: NCI tumour cell line growth inhibition, 48 h
[2] = tested on: P388 leukemia; experiment: NCI tumour cell line growth inhibition, 48 h

In the case of `Cn1c(=O)[nH]c2nncnc2c1=O`, the TGI [1] was over 625 µM and the TGI [2] was 148 µM.
